The values that follow come from patent US8501782B2, “Piperidinyl derivatives as modulators of chemokine receptor activity” (Bristol-Myers Squibb Company, priority 2007, dated 2013).

Each structure is given as a SMILES string.

This assay concerns the target T1, CCR1 (Homo sapiens, UniProt P32246).
T1 construct: THP-1 monocytic leukemia cells are combined with 100 μg of LS WGA PS beads; endogenous in cells; host or cells: THP-1 human monocytic leukemia cells
T1 sequence (P32246 1-355): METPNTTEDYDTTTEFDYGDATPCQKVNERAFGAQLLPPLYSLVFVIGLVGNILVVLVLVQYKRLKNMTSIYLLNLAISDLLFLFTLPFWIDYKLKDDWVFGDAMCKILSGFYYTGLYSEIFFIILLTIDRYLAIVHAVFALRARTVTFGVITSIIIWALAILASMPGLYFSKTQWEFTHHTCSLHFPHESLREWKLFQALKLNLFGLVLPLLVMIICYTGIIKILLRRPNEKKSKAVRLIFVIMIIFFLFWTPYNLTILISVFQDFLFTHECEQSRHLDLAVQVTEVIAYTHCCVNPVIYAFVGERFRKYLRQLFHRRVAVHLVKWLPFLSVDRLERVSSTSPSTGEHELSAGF
In words: CCR1 ligand binding scintillation proximity assay (SPA): antagonism of MIP-1α binding to human THP-1 cells. Conditions: THP-1 monocytic leukemia cells, 0.1 nM [125I]-MIP-1α, 12 h at room temperature. As to the method:
Antagonism of MIP-1α Binding to Human THP-1 Cells
CCR1 ligand binding scintillation proximity assay (SPA) description:
For radioligand competition studies, a final concentration of 1×10^5 THP-1 monocytic leukemia cells are combined with 100 μg of LS WGA PS beads (Amersham, Cat.#: RPNQ 0260) in 40 μl of assay buffer (RPMI 1640 without phenol red, 50 mM HEPES, 5 mM MgCl2, 1 mM CaCl2, 0.1% BSA). The THP-1 cell/bead mixture is added to each well of a 384-well assay plate (PerkinElmer, Cat. #:6007899) containing test compound in 3-fold serial dilution, with final concentrations ranging from 8 μM to […]. A final concentration of 0.1 nM [^125I]-MIP-1α (PerkinElmer, Cat. #NEX298) in 20 μl assay buffer is added to the reaction. Sealed assay plates are incubated at room temperature for 12 h then analyzed by LEADseeker™.
The competition data of the test compound over a range of concentrations is plotted as percentage inhibition of radioligand specific bound in the absence of test compound (percent of total signal). After correcting for non-specific binding, IC50 values are determined. The IC50 value is defined as the concentration of test compound needed to reduce [^125I]-MIP-1α specific binding by 50% and is calculated using the four parameter logistic equation to fit the normalized data. The Ki values are determined by application of the Cheng-Prusoff equation to the IC50 values, where Ki=IC50/(1+ligand concentration/Kd) The Kd of [^125I]-MIP-1α in THP-1 cells is 0.1 nM. Each experiment is run in duplicate.
(Scintillation proximity formats need no separation of bound from free tracer.)
`Cc1cc(C)c(C(=O)NC(C)(C)CC(=O)N2CC[C@](O)(c3ccc(Cl)cc3)C(C)(C)C2)cn1` [Example 40]: the IC50 amounted to 1.5 nM.

With `CC(C)(CC(=O)N1CC[C@](O)(c2ccc(Cl)cc2)C(C)(C)C1)NC(=O)c1cccc(-n2cnnn2)c1` [Example 50], the IC50 was found to be 2.2 nM.

For the compound `CC(C)(CC(=O)N1CC[C@](O)(c2ccc(Cl)cc2)C(C)(C)C1)NC(=O)c1cccc(C(N)=O)c1` [Example 42], the IC50 was 1.8 nM.

Turning to `CC1(C)CN(C(=O)CCNC(=O)c2ccccc2)CC[C@]1(O)c1ccc(Cl)cc1` [Example 27], the IC50 stood at 41.6 nM. Compared with the last compound, the IC50 is about 23-fold higher. The figure for `CC(C)(CC(=O)N1CCC(O)(c2ncc(Cl)cc2Cl)C(C)(C)C1)NC(=O)c1ccccc1` (stereo not drawn) [Example 83] is 788 nM; for `CC(=O)N[C@@H]1CC[C@@H](C(=O)N[C@H](C)CC(=O)N2CC[C@](O)(c3ccc(Cl)cc3)C(C)(C)C2)C1` [Example 11, (1R,3R)-3-Acetamido-N—((R)-4-((S)-4-(4-chlorophenyl)-4-hydroxy-3,3-dimethylpiperidin-1-yl)-4-oxobutan-2-yl)cyclopentanecarboxamide] it is 43.9 nM. Compound `C[C@H](NC(=O)NC(C)(C)CC(=O)N1CC[C@](O)(c2ccc(Cl)cc2)C(C)(C)C1)C(C)(C)O` [Example 63, 1-(4-((S)-4-(4-Chlorophenyl)-4-hydroxy-3,3-dimethylpiperidin-1-yl)-2-methyl-4-oxobutan-2-yl)-3-((S)-3-hydroxy-3-methylbutan-2-yl)urea] displayed an IC50 of 1.9 nM. For the compound `CC1(C)CN(C(=O)CC2(NC(=O)c3ccccc3)CCOCC2)CC[C@]1(O)c1ccc(Cl)cc1` [Example 15, (S)—N-(4-(2-(4-(4-Chlorophenyl)-4-hydroxy-3,3-dimethylpiperidin-1-yl)-2-oxoethyl)tetrahydro-2H-pyran-4-yl)benzamide], the IC50 was determined as 1180 nM. The compound `C[C@H](CC(=O)N1CC[C@](O)(c2ccc(Cl)cc2)C(C)(C)C1)NC(=O)[C@@H]1CC[C@@H](NC(=O)OC(C)(C)C)C1` [Example 28] displayed an IC50 of 46.7 nM.

In turn, `CC(C)(CC(=O)N1CCC(O)(c2ccc(C#N)cc2)C(C)(C)C1)NC(=O)c1ccccc1` (stereo not drawn) [Example 60] displayed an IC50 of 45.3 nM. For `CC(C)(CC(=O)N1CC[C@](O)(c2ccc(Cl)cc2)C(C)(C)C1)NC(=O)C1CCCC1` [Example 35], the 50% inhibitory concentration (IC50) came to 1.7 nM.

For `CC(CNC(=O)C1CCCC1)C(=O)N1CC[C@](O)(c2ccc(Cl)cc2)C(C)(C)C1` (stereo partly drawn) [Example 21], the IC50 came out at 42 nM. The figure for `CCOC(=O)c1cc(C2(O)CCN(C(=O)CC(C)(C)NC(=O)c3ccccc3)CC2(C)C)ccc1Cl` (stereo not drawn) [Example 78] is 991 nM. `CC(NC(=O)c1ccccc1)C(C)C(=O)N1CC[C@](O)(c2ccc(Cl)cc2)C(C)(C)C1` (single isomer, unassigned) [Example 72a] showed a concentration for half-maximal inhibition (IC50) of 1190 nM. In the case of `CC(C)[C@@H](CNC(=O)Cc1ccccc1)C(=O)N1CC[C@](O)(c2ccc(Cl)cc2)C(C)(C)C1` [Example 89], the IC50 was 809 nM.

What is called IC50 is the point on the concentration scale where inhibition reaches its midpoint. Lower therefore signals greater potency.
